Data reported in patent US20240252496A1, “SELECTIVE HYPOTHALAMUS PERMEABLE HDAC6 INHIBITORS FORTREATMENT OF LEPTIN-RESISTANT OBESITY” (The Children’s Medical Center Corporation, priority 2022, published 2024).

Legend:
[1] = Brain/plasma ratio, brain and hypothalamus penetrance; format: in vivo; details: in words
HDAC6 [2] = target: T1, HDAC6 (Mus musculus (Mouse), UniProt Q9Z2V5); test: HDAC6 inhibition in hypothalamus and other brain regions (Ac-tubulin); design: species or system mice; details: in vivo
HDAC6 [3] = target: T1, HDAC6; test: LepRb acetyl-lysine immunoblotting in HEK293 cells; format: cell-based; details: 200 nM, 0.5-3 h
Procedure: HEK293 cells were transfected with the plasmids and were treated with vehicle or ACY775. Subsequently Flag immunoprecipitation was used to pull down LepRb followed by Ac^Lys or Flag immunoblotting.
To test whether HDAC6 can deacetylate LepRb, HEK293 cells were transfected with plasmids (LepRb-Flag, HA-p300 and HDAC6-myc). LepRb was immunoprecipitated by Flag antibodies, which was followed by acetyl-lysine (Ac^Lys) or immunoblottings.
Next, cells were transfected with plasmids (LepRb-Flag, HA-p300 and HDAC6-myc) and subsequently treated with ACY775 ([…]) for 0.5, 1, 2 and 3 h. […] Next, to investigate whether HDAC6 has any effect on LepRb tyrosine phosphorylation, which is indicative of LepRb activation, HEK 293 cells were transfected with LepRb and HDAC6-Myc plasmids in the indicated order and the cells stimulated with leptin (200 ng/ml) for 10 and 60 minutes. The Flag immunoprecipitates were exposed to phospho-tyrosine (p^Tyr) immunoblotting.

HDAC6 in AgRP neurons = test: DIO mice with HDAC6 deleted in AgRP neurons (HDAC6^Agrp-Δ); format: in vivo
Procedure: Design, validation, and stereotaxic injection of AAV viral vector carrying the guide RNAs targeting the mouse HDAC6 genomic locus. Three designed sgRNAs were concatenated and constructed into an AAV vector carrying a cre-enabled mCherry fluorescent marker.
(§1) Following the bilateral injection of AAV-sgHDAC6 into the arcuate nucleus of Agrp-ires-cre::LSL-Cas9-GFP (Agrp-Cre^+/−::Cas9^+/−) or control LSL-Cas9-GFP (Cas9^+/−) mice, immunostaining to detect the expression of mCherry and GFP was performed. AAV-sg-HDAC6 injected Agrp-Cre^+/−::Cas9^+/− (HDAC6^Agrp-Δ) and Cas9^+/− (HDAC6^WT) DIO mice (n=7 for each group) were fasted for 24 hours, and injected with ACY775 (10 mg/kg. i.p). Hourly total dark cycle food intake (g) (n=7 for each group) of these mice after ACY775 injection was measured. Body weight of AAV-sg-HDAC6 injected HDAC6^Agrp-Δ (n=11) and HDAC6^WT (n=6) mice were measured during 3 weeks of ACY775 (10 mg/kg/day, i.p.) treatment. Daily average food intake of HDAC6^Agro-Δ (n=11) and HDAC6^WT (n=6) mice was measured during 3 weeks of ACY775 (10 mg/kg/day, i.p.) treatment. 24-hour food intake average of HDAC Agrp- and HDAC6^WT mice during the 3 weeks of ACY775 treatment was assessed. Serum leptin level (ng/ml) of HDAC6^Agrp-Δ and HDAC6^WT mice after 2 weeks of ACY775 treatment (n=13 for HDAC6^WT and n=18 for HDAC6^Agrp-Δ) was measured. Lean mass (g); fat mass; and fat percentage (%) of HDAC Agrp- and HDAC6^WT DIO mice after 3 weeks of ACY775 treatment was measured by DEXA scan. The HDAC6 inhibitor responsive neurons in the dorsomedial hypothalamus (DMH) were assessed. Immunostaining and quantification of c-Fos expression was performed in the DMH of DIO mice following one-time ACY775 treatment (10 mg/kg, i.p.).

DMH neurons = test: ACY775-responsive DMH neurons in TRAP2 DIO mice (c-fos, HDAC6 depletion, caspase3 ablation); format: in vivo
Procedure: as §1
Coordinates used for aav-sg-HDAC6 injection into the DMH of c-Fos-iCreER::LSL-Cas9-GFP (TRAP2-Cas9) mouse, mCherry immunostaining in the aav-sg-HDAC6 injected TRAP2-cas9 obese mice, which were treated three weeks earlier with one dose of ACY775 (10 mg/kg, i.p.) (TRAP2-HDAC6^DMH-Δ) or vehicle (TRAP2-HDAC6^WT), followed by 4-Hydroxytamoxifen (4-OHT) injection, were assessed. TRAP2-HDAC6^WT and TRAP2-HDAC6^DMH-Δ mice were fasted 24-h and treated with ACY775 (10 mg/kg, i.p.). Hourly and total dark cycle food intake (g) (n=4 for each group) was determined for these mice after ACY775 injection. Daily body weight of TRAP2-HDAC6^DMH-Δ (n=10) or TRAP2-HDAC6^WT (n=11) DIO mice was measured during 2 weeks of ACY775 (10 mg/kg/day, i.p) treatment. Daily average food intake of TRAP2-HDAC6^DMH-Δ (n=10) or TRAP2-HDAC6^WT (n=11) DIO mice was measured during 2 weeks of ACY775 treatment.
To investigate whether activity of other neuronal populations are altered after HDAC6 inhibitor treatment, c-fos staining was performed in the whole brain of DIO mice, which were acutely treated with ACY775. […] Some of the DMH neurons express high levels of LepRb and involved in regulation of appetite […]. […]

T1 sequence (Q9Z2V5 whole entry): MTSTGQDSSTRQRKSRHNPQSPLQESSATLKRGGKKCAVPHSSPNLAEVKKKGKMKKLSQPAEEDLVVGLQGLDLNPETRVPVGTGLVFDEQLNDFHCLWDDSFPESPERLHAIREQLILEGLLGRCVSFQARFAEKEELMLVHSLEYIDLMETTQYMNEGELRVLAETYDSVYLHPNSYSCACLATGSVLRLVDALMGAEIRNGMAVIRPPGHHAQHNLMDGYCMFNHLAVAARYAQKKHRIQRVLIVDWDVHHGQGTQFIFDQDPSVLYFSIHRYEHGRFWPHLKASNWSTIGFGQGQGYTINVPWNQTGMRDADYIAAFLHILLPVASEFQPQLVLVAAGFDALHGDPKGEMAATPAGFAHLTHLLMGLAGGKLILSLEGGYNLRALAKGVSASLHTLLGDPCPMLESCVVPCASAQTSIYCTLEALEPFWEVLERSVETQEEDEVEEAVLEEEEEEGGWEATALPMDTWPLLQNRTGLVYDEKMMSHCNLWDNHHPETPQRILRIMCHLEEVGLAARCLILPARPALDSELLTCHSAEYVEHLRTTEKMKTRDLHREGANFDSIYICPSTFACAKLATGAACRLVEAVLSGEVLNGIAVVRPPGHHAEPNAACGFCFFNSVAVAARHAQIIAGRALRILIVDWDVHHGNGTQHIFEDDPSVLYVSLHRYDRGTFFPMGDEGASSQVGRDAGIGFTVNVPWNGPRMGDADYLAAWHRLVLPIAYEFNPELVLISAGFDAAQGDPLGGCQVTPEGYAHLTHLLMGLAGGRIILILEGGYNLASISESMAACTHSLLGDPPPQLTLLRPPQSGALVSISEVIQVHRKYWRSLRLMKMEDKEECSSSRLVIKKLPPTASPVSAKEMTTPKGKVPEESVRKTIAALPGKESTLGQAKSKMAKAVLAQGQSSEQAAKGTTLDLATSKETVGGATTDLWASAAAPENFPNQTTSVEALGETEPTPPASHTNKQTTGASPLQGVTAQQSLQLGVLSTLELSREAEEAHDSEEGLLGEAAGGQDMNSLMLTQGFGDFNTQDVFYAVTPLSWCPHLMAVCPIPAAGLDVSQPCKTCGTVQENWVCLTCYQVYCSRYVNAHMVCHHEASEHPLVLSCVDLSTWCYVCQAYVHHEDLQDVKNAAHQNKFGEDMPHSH

Row | Structure (SMILES) | penetrance into the hypothalamus [1] | HDAC6 inhibition in the hypothalamus (HDAC6 [2]) | deacetylation of LepRb (HDAC6 [3]) | suppression of food intake after a single dose in HDAC6^Agrp-Δ DIO mice (HDAC6 in AgRP neurons; ACY775 10 mg/kg i.p., fasted) | anti-obesity effects in HDAC6^Agrp-Δ vs HDAC6^WT DIO mice (HDAC6 in AgRP neurons; chronic treatment) | food intake in fasted caspase3^on-DMH vs caspase3^off-DMH mice (DMH neurons; 10 mg/kg i.p.) | weight and food intake in TRAP2-HDAC6^DMH-Δ and TRAP2-HDAC6^WT mice (DMH neurons; 2 weeks, 10 mg/kg/day i.p.) | c-fos positive cells in DMH (DMH neurons; DIO mice, acute treatment, fasting) | body weight and food consumption in caspase3^on-DMH mice (DMH neurons; chronic, 10 mg/kg/day i.p.)
1 | O=C(CCCCCCNC(=O)c1cnc(N(c2ccccc2)c2ccccc2)nc1)NO [Ricolinostat] | neither of which have high penetrance into the hypothalamus | nor show HDAC6 inhibition in the hypothalamus |  |  |  |  |  |  | 
2 | O=C(NO)c1cnc(NC2(c3cccc(F)c3)CCCCC2)nc1 [ACY775, 2-[[1-(3-fluorophenyl)cyclohexyl]amino]-N-hydroxy-5-pyrimidinecarboxamide] |  |  | completely block deactylation of LepRb | almost complete resistance to ACY755-induced suppression of food intake | Significantly attenuated effects of ACY775 on all the parameters | significantly higher than caspase3^off-DMH mice | lost weight and food intake was reduced equally in both groups | major increase in c-fos positive cell number | neither reduced the body weight nor the food consumption
